# “Also recorded” adds a separate entry of the source. Ends that are not written are not given here.
# Experiments:
# NisP = test: Cleavage of nisin mutants by NisP in crude supernatants or purified peptide, masses by MALDI-TOF; assay type: biochemical, Lactococcus lactis; details: His-tagged purified NisP, overnight 37°C; for Aberrant cleavage / misprocessing by NisP: culture pH (4.5–5.0) or pH 6.0, MALDI-TOF
# Protocol: Alternatively, supernatants containing nisin mutant peptides produced after induction were divided into two fractions; one in which the pH was adjusted to 6.0 and the other one where the pH was the actual fermentation pH. They were incubated overnight at 37°C with or without His-tagged purified NisP at a ratio of 1000:1. After the incubation, the supernatants were precipitated using TCA and resuspended in 1/20 volume 0.05% acetic acid. For the mutants that were produced in lower amounts, larger volumes were induced and the peptides were purified by cationic exchange chromatography as described before and separated by reverse phase chromatography using a Jupiter 4 μm Proteo 90 Å 250 × 4.6 mm C12 analytical column (Phenomenex). The column was equilibrated in 20% organic solvent (acetonitrile 0.1% TFA) before the sample injection. It was washed for 5 min before applying a linear gradient from 20 to 50% organic solvent in 20 min. 1 μl of each collected peak was used for mass-spectrometry determination.
# Mass spectrometry analysis of the samples was performed by matrix-assisted laser desorption/ionization (MALDI) time-of-flight (ToF) in an ABI Voyager DE Pro (Applied Biosystems) operating in linear mode as previously described using external calibration (van Heel et al., [2013]). Briefly, 1 μl sample was spotted, dried and washed with 5 μL Milli-Q water, on the target. Next, 1 μl of α-cyano-4-hydroxycinnamic acid 5 mg/ml (Sigma-Aldrich) was spotted on the sample.
# We designed a set of nisin mutants to investigate the specificity of NisP (Figure 4). For all these mutants, supernatants were collected after induction and divided into three fractions. NisP was added to two of these fractions, one maintaining the pH of the culture (4.5–5.0) and the other fraction was adjusted to pH 6.0. The third fraction was used as an untreated control. After cleavage, the masses of the peptides were monitored by MALDI-TOF (Table 2).
# [1] = tested on: L. lactis NZ9000 (pNZnisP-8H); test: Antimicrobial activity of purified prelantibiotics against NisP producing sensor strain; assay type: cell-based, Lactococcus lactis; details: compared to the plasmid free strain, data not shown
# Protocol: (§1) Activity tests were performed by well-diffusion assay as indicated by van Heel et al. ([2013]). L. lactis NZ9000 transformed with the appropriate plasmids or Micrococcus flavus were used as sensor strains as specified in each figure. The cleavage of nisin by NisP after SDS-PAGE was monitored washing the gel according to Bhunia et al. ([1987]) and covering with an overlay of GM17 soft agar inoculated with NZ9000 (pIL3BTC pNZnisA-E3) induced with 1 ng/ml nisin. The overlay was incubated for 16 h, after which the presence of inhibition zones was evaluated.
# The substrate tolerance of soluble NisP was tested using a set of different lantibiotics. These were produced using the nisin modification machinery encoded in NZ9000 (pIL3BTC pNZE3-mutant) and purified by cationic exchange chromatography. For this purpose, NZ9000 (pNZ-nisP-8H) was used as a sensor strain and tested using gallidermin (van Heel et al., [2013]) and two lantibiotics detected in the genome of Streptococcus pneumoniae, PneA1 and PneA2 encoded in the genes spr1765 and spr1766, respectively, which were heterologously expressed in L. lactis fused to the nisin leader peptide (Majchrzykiewicz et al., [2010]) (Figure 5). […] The activity was restored when a strain producing soluble NisP was employed.
# Figure 5 Antimicrobial activity of purified modified lantibiotics gallidermin, 1215 and 1268 against L. lactis NZ9000 (pNZnisP-8H). […]
# [2] = tested on: L. lactis NZ9000 (pIL253 pNZ8048); test: Activity of the proteases in crude supernatants, antimicrobial assay against L. lactis; assay type: cell-based, Lactococcus lactis; details: 1 μl protease with 50 μl supernatant containing its corresponding prenisin variant
# Protocol: as §1
# To further compare the versatility of NisP in culture conditions with various proteases frequently used in biotechnology, we mutated the last four amino acids in the leader peptide (P4-P1) of nisin (i.e., ASPR) to insert a factor Xa (IEGR) or a thrombin (AVPR) cleavage site. We also mutated the arginine in position P1 of the leader peptide into glutamic acid, creating a cleavage site for the endoprotease Glu-C. Additionally, the proposed self-cleavage sequence of NisP (VSLR) (Figure 1, van der Meer et al., [1993]) was used to replace the ASPR sequence at the end of the nisin leader peptide. […] The cleavage was evaluated by activity against NZ9000 (pIL253 pNZ8048), which is resistant to the erythromycin and chloramphenicol present in the supernatants of the substrate producer strains but sensitive to nisin. […]
# Micrococcus flavus = test: Activation of prenisin with supernatants containing NisP variants, antimicrobial assay; assay type: cell-based; details: supernatants after 3 h induction; in the first test 5 μl with 50 μl prenisin
# Protocol: as §1
# The supernatants of the strains NZ9000 (pNZnisPsl-8H) and NZ9000 (pNZnisPsl-8K) were tested for the presence of protease activity after 3 h of induction with nisin. In each case, 5 μl of the supernatant was mixed with 50 μl of prenisin obtained by TCA precipitation of induced NZ9000 (pIL3BTC pNZnisA-E3). […]
# In a second approach, we attempted to reduce the size of NisP, while keeping the active subtilisin-like domain intact. […] Additionally, the size of the inhibition halo measured is larger in the samples activated with the soluble protease present in the supernatants of these three engineered strains compared to the samples activated with the supernatant of L. lactis NZ9000 (pNGnisTP), which produces as a major product wild-type cell-anchored NisP.
molecule,measurement,setting,value
"nisin I1D: Nisin I1D mutant (MSTKDFNLDLVSVSKKDSGASPRDTSISLCTPGCKTGALMGCNMKTATCHCSIHVSK; ends and bridges not checked; cysteine pairing not given here; UniProt P13068 1-57, looked up, variant I1D)",Cleavage by NisP,"NisP; ratio 1000:1, culture pH (4.5–5.0) or pH 6.0, MALDI-TOF","a small fraction of uncleaved peptide after the incubation of the mutant nisin I1D with the protease, which indicates reduced cleavage efficiency"
"nisin I1K: Nisin I1K mutant (MSTKDFNLDLVSVSKKDSGASPRKTSISLCTPGCKTGALMGCNMKTATCHCSIHVSK; ends and bridges not checked; cysteine pairing not given here; UniProt P13068 1-57, looked up, variant I1K)",Aberrant cleavage / misprocessing by NisP,NisP,a small fraction of mature nisin with a mass difference consistent with the presence of Arg P1 in the mature peptide
same,Aberrant cleavage / misprocessing by NisP,NisP; listed as I1K,a small additional peak detected by mass-spectrometry consistent with a cleavage between positions P2 and P1
"nisin-C7A: Nisin C7A mutant, lacking the first ring (MSTKDFNLDLVSVSKKDSGASPRITSISLATPGCKTGALMGCNMKTATCHCSIHVSK; not fully specified; cysteine pairing not given here; UniProt P13068 1-57, looked up, variant C7A)",Aberrant cleavage / misprocessing by NisP,NisP,small peaks corresponding to peptides cleaved at abnormal P1 or P2 positions in the leader peptide; also recorded: a small fraction of nisin lacking the first amino acid(s)
"nisin-ringA-less: Nisin (T2V S3A S5A C7A) mutant (MSTKDFNLDLVSVSKKDSGASPRIVAIALATPGCKTGALMGCNMKTATCHCSIHVSK; not fully specified; cysteine pairing not given here; UniProt P13068 1-57, looked up, variant T2V S3A S5A C7A)",Aberrant cleavage / misprocessing by NisP,NisP,small peaks corresponding to peptides cleaved at abnormal P1 or P2 positions in the leader peptide; also recorded: a small fraction of nisin lacking the first amino acid(s)
"nisin: mature model lantibiotic (ITSISLCTPGCKTGALMGCNMKTATCHCSIHVSK; Lantibiotic nisin-A; UniProt P13068 24-57, looked up)",Sensitivity of the NisP producing strain to nisin,[1],increased sensitivity
thrombin,Activity of the protease in culture conditions (release of active nisin),[2],active; also recorded: able to cleave in culture conditions
trypsin,Activity of the protease in culture conditions (release of active nisin),[2],able to cleave in culture conditions
same,Protease activity (antimicrobial activity after activation of prenisin),Micrococcus flavus,antimicrobial activity only in the positive controls
"NZ9000 (pNGnisTP): strain producing as a major product wild-type cell-anchored NisP (protein, UniProt Q07596 1-682, looked up, full-length, strain producing as a major product wild-type cell-anchored NisP) MKKILGFLFIVCSLGLSATVHGETTNSQQLLSNNINTELINHNSNAILSSTEGSTTDSINLGAQSPAVKSTTRTELDVTGAAKTLLQTSAVQKEMKVSLQETQVSSEFSKRDSVTNKEAVPVSKDELLEQSEVVVSTSSIQKNKILDNKKKRANFVTSSPLIKEKPSNSKDASGVIDNSASPLSYRKAKEVVSLRQPLKNQKVEAQPLLISNSSEKKASVYTNSHDFWDYQWDMKYVTNNGESYALYQPSKKISVGIIDSGIMEEHPDLSNSLGNYFKNLVPKGGFDNEEPDETGNPSDIVDKMGHGTEVAGQITANGNILGVAPGITVNIYRVFGENLSKSEWVARAIRRAADDGNKVINISAGQYLMISGSYDDGTNDYQEYLNYKSAINYATAKGSIVVAALGNDSLNIQDNQTMINFLKRFRSIKVPGKVVDAPSVFEDVIAVGGIDGYGNISDFSNIGADAIYAPAGTTANFKKYGQDKFVSQGYYLKDWLFTTANTGWYQYVYGNSFATPKVSGALALVVDKYGIKNPNQLKRFLLMNSPEVNGNRVLNIVDLLNGKNKAFSLDTDKGQDDAINHKSMENLKESRDTMKQEQDKEIQRNTNNNFSIKNDFHNISKEVISVDYNINQKMANNRNSRGAVSVRSQEILPVTGDGEDFLPALGIVCISILGILKRKTKN",Protease activity (antimicrobial activity after activation of prenisin),Micrococcus flavus,antimicrobial activity only in the positive controls

# — article PMC5812297, “Specificity and Application of the Lantibiotic Protease NisP” (Frontiers in Microbiology, 2018)
